Paper PMC9268243, “Metabolic Behaviors of Aconitum Alkaloids in Different Concentrations of Aconiti Lateralis Radix Praeparata and Effects of Aconitine in Healthy Human and Long QT Syndrome Cardiomyocytes” (Molecules, 2022)
Read-outs that look alike come from different tables or passages of the source.

Key:
[1] = Pharmacokinetic study of six aconitum alkaloids in rat plasma after oral Fu Zi extracts (UPLC-MS/MS); assay type: in vivo, Sprague Dawley rats; details: SD rat plasma, mean ± SD, n = 8; for Cmax / Tmax / AUC(0-t) / CL/F / Vd/F / half-life: both sexes, Sprague Dawley, in vivo; for AUC(0-t): read-out: AUC(0–48h); for CL/F: read-out: CLz/F (converted); for Vd/F: read-out: Vz/F; for half-life: read-out: t1/2z (converted)
Description: Fu Zi (200 g) was taken and broken by a pulverizer to the size of 0.5–1.0 cm. The broken Fu Zi was soaked in 1.6 L distilled water and boiled for 0.5 h. The filtrate was collected and the previous step was repeated for the filtered residue. The mixed filtrates were precipitated with 60% ethanol, and then centrifuged (2000× g, 10 min). The supernatant was decompressed and concentrated to a final density of 2.0 g/mL by the amount of the crude drugs. The final concentration of ethanol in Fu Zi extracts before administration was below 0.5%. The extract was subsequently kept at −20 °C for oral administration to rats.
All samples were analyzed on UPLC® I-Class and Xevo® TQS mass spectrometry combined system. Separations by a Waters ACQUITY UPLC® HSS T3(2.1 mm × 100 mm, 1.8 μm) column were conducted with a mobile phase of water (A) and acetonitrile (B), both containing 0.1% formic acid, at the flow rate of 0.3 mL·min^−1.The run time was 5.0 min and the gradient elution program was adopted as follows: 0–0.3 min, 10% B; 0.3–1 min, 10–50% B; 1–2.5 min, 50–90% B; 2.5–3 min, 90% B; 3–5 min, 10% B. The temperature of the column and samples were set at 45 °C and 10 °C, respectively. The volume of injection was 2 μL.
The detection was quantified by a triple quadrupole mass spectrometer that was set as multiple reactive monitoring (MRM) in the electrospray positive ionization mode (ESI+). The correlative parameters were as follows: capillary voltage: 3 kV; desolvation gas flow: 800 L·h^−1; cone gas flow: 150 L·h^−1; source temperature: 150 °C; desolvation temperature: 500 °C.
The method of […] was utilized. An amount of 100 μL of plasma samples from rats after oral administration of Fu Zi extracts was precipitated with 300 μL of 50% acetonitrile plus 50% methanol, vortexed for 1.0 min and centrifuged at a speed of 12,000× g at 4 °C for 10 min. The supernatant was transferred to another 1.5 mL centrifuge tube, dried with a stream of nitrogen at 40 °C, redissolved in 50 μL methanol and centrifuged at 12,000× g for 10 min. Then, the supernatant was pipetted out into the autosampler vials and analyzed by UPLC-MS/MS system.
24 Sprague Dawley rats (half male and female, weight 180–220 g) were purchased from Beijing Weitong Lihua Biotechnology Co.Ltd. (Beijing, China). The license number of experimental animal production was SCXK (Jing) 2016–0006. The animals were maintained under a standard laboratory condition (humidity: 40–70%, room temperature: 20–26 °C, […], 12 h dark-light cycle) and fed separately. All animal experiments were conducted according to the Guide for the Care and Use of Laboratory Animals (National Research Council of the USA, 1996) and approved by the Institutional Animal Care and Use Committee (IACUC-DWZX-2020-776). After 5 days of acclimation, the rats were fasted for 12 h but provided with water freely before the experiments. The rats were randomly divided into 3 groups: high (2.0 g/kg), middle (1.0 g/kg), and low (0.5 g/kg) dose groups. The Fu Zi extracts was administered to each rat intragastrically. An equivalent of 0.20 mL blood samples were collected from the fossa orbitalis vein into 1.5 mL heparinized centrifuge tubes at the designated time points after dosing: 0.08, 0.25, 0.5, 1, 2, 4, 8, 12, 24, and 48 h. The plasma samples were pipetted out into another 1.5 mL centrifuge tubes after being centrifuged at 5000× g for 10 min and then stored at −20 °C until further analysis.
The data were acquired by […] from Waters (UNIFI). Microsoft Office Excel and the SPSS software (Version 13.0) was used for data analysis. The data below the LLOQ were regarded as zero in summary statistics. The pharmacokinetic parameters were calculated by DAS pharmacokinetic program (Version 2.0) and all analyzed by non-compartmental method. […] All data were presented as mean ± SD. […]

CYP3A4 = details: in vivo; cited from earlier work

| Compound | Cmax ([1]; oral Fu Zi extracts 0.5 g/kg) | Tmax ([1]; oral Fu Zi extracts 0.5 g/kg) | AUC(0-t) ([1]; oral Fu Zi extracts 0.5 g/kg) | CL/F ([1]; oral Fu Zi extracts 0.5 g/kg) | Vd/F ([1]; oral Fu Zi extracts 0.5 g/kg) | half-life ([1]; oral Fu Zi extracts 0.5 g/kg) | Cmax ([1]; oral Fu Zi extracts 1.0 g/kg) | Tmax ([1]; oral Fu Zi extracts 1.0 g/kg) | AUC(0-t) ([1]; oral Fu Zi extracts 1.0 g/kg) | CL/F ([1]; oral Fu Zi extracts 1.0 g/kg) | Vd/F ([1]; oral Fu Zi extracts 1.0 g/kg) | half-life ([1]; oral Fu Zi extracts 1.0 g/kg) | Cmax ([1]; oral Fu Zi extracts 2.0 g/kg) | Tmax ([1]; oral Fu Zi extracts 2.0 g/kg) | AUC(0-t) ([1]; oral Fu Zi extracts 2.0 g/kg) | CL/F ([1]; oral Fu Zi extracts 2.0 g/kg) | Vd/F ([1]; oral Fu Zi extracts 2.0 g/kg) | half-life ([1]; oral Fu Zi extracts 2.0 g/kg) | main CYP 450 subtype for alkaloid metabolism (CYP3A4) | t1/2z ([1]; oral Fu Zi extracts 1.0 g/kg) |
| --- | --- | --- | --- | --- | --- | --- | --- | --- | --- | --- | --- | --- | --- | --- | --- | --- | --- | --- | --- | --- |
| CCN1CC2(COC)C(O)CC(OC)C34C5CC6(O)C(OC)C(O)C(O)(C5C6OC(=O)c5ccccc5)C(C(OC)C23)C14 (stereo not shown) [BAC, benzoylaconine] | 1.52 ± 0.71 ng/mL | 3.72 ± 3.6 h | 16.2 ± 5.43 ng·h/mL | 460 mL/min/kg | 194 ± 117 L/kg | 4.48 ± 0.64 h | 3.24 ± 2.01 ng/mL | 5.71 ± 5.07 h | 38.5 ± 15.4 ng·h/mL | 271 mL/min/kg | 152 ± 97.1 L/kg | 5.91 ± 3.79 h | 5.91 ± 2.25 ng/mL | 0.34 ± 0.2 h | 50.5 ± 19.4 ng·h/mL | 583 mL/min/kg | 801 ± 396 L/kg | 13.7 ± 4.26 h |  |  |
| COC[C@@]12CC[C@H](OC)[C@]34C(C([C@H](OC)[C@H]13)[C@]1(OC(C)=O)[C@H]3[C@@H](OC(=O)c5ccccc5)[C@](O)(C[C@H]34)[C@@H](OC)[C@@H]1O)N(C)C2 [HA, hypaconitine] | 6.37 ± 1.96 ng/mL | 2.14 ± 0.9 h | 62.9 ± 26.9 ng·h/mL | 67 mL/min/kg | 12.8 ± 6.88 L/kg | 1.83 ± 0.64 h | 9.22 ± 1.78 ng/mL | 3.88 ± 2.03 h | 115 ± 25 ng·h/mL | 59.5 mL/min/kg | 45.3 ± 26.3 L/kg |  | 12.5 ± 4.42 ng/mL | 1.6 ± 1.47 h | 186 ± 64.7 ng·h/mL | 79.7 mL/min/kg | 80.4 ± 35.5 L/kg | 11.9 ± 4.59 h | CYP3A4 | 8.72 ± 3.40 h |
